According to ChEMBL document CHEMBL1150178, “Two toxic kaurene glycosides from the burrs of Xanthium pungens” (J Nat Prod, 1990):

Assays:
Rattus norvegicus = assay: Toxicity in Wistar rat at 3 mg/kg; assay type: organism-based; design: dose 3 mg/kg; details: in vivo
Mus musculus = assay: Toxicity in mouse at 3 mg/kg, ip; assay type: organism-based; design: dose 3 mg/kg, route intraperitoneal; details: in vivo

Row | SMILES | Activity (Rattus norvegicus) | Activity (Mus musculus)
1 | C=C1[C@@H]2CC[C@H]3[C@]4(C)C[C@H](O[C@@H]5O[C@H](CO)[C@@H](O)[C@H](O)[C@H]5OC(=O)CC(C)CC)CC(C(=O)O)(C(=O)O)[C@H]4CC[C@]3(C2)[C@H]1O (some centres undefined) | Toxic | Toxic
2 | C=C1[C@@H]2CC[C@H]3[C@]4(C)C[C@H](O[C@@H]5O[C@H](CO)[C@@H](O)[C@H](O)[C@H]5OC(=O)CC(C)C)CC(C(=O)O)(C(=O)O)[C@H]4CC[C@]3(C2)[C@H]1O | Toxic | Toxic
